In article PMC3525752 (Bioorganic & medicinal chemistry, 2012):

Assays:
IκB kinase β = conditions: cited from earlier work
Mtb H37Rv = assay: Minimum inhibitory concentration; conditions: for fold drop/change in potency (MIC) relative to parent compound 1: versus lead 1
Mtb = conditions: in Mtb; cited from earlier work
[1] = tested on: murine macrophage cell line J774.1; assay: Cytotoxicity by Alamar Blue, 3 days; assay type: cell-based; conditions: J774.1 cells, two-fold dilutions starting at 60 µM

| Compound | fold drop/change in potency (MIC) relative to parent compound 1 (Mtb H37Rv) | further results |
| --- | --- | --- |
| O=C(Nc1cc(C(F)(F)F)cc(C(F)(F)F)c1)c1cc(Cl)ccc1O [Compound 1, N-(3,5-bis(trifluoromethyl)phenyl)-5-chloro-2-hydroxybenzamide] |  | inhibition of IκB kinase β (IκB kinase β): potent inhibitor |
| O=C(Nc1cc(C(F)(F)F)cc(C(F)(F)F)c1)c1ccccc1O [Compound 2, N-(3,5-Bis(trifluoromethyl)phenyl)-2-hydroxybenzamide] | 2–4 fold |  |
| O=C(Nc1cc(C(F)(F)F)cc(C(F)(F)F)c1)c1cc(F)ccc1O [Compound 7, N-(3,5-Bis(trifluoromethyl)phenyl)-5-fluoro-2-hydroxy-benzamide] | 2 fold |  |
| O=C(Nc1cc(C(F)(F)F)cc(C(F)(F)F)c1)c1cc(Br)ccc1O [Compound 8, N-(3,5-Bis(trifluoromethyl)phenyl)-5-bromo-2-hydroxybenzamide] | 2 fold |  |
| O=C(Nc1cc(C(F)(F)F)cc(C(F)(F)F)c1)c1cc(I)ccc1O [Compound 9, N-(3,5-Bis(trifluoromethyl)phenyl)-2-hydroxy-5-iodobenzamide] | 2 fold |  |
| O=C(Nc1ccccc1)c1cc(Cl)ccc1O [Compound 26, 5-Chloro-2-hydroxy-N-phenylbenzamide] | 4–8 fold |  |
| O=C(Nc1ccccc1C(F)(F)F)c1cc(Cl)ccc1O [Compound 28, 5-Chloro-2-hydroxy-N-(2-trifluoromethyl-phenyl)-benzamide] |  | fold loss in activity on moving single CF3 from meta to ortho (Mtb H37Rv; versus meta-CF3 compound 27): 4–8 fold |
| O=C(Nc1cccc(F)c1)c1cc(Cl)ccc1O [Compound 34, 5-Chloro-N-(3-fluorophenyl)-2-hydroxybenzamide] | 2–4 fold |  |
| O=C(Nc1cccc(Br)c1)c1cc(Cl)ccc1O [Compound 35, N-(3-Bromophenyl)-5-chloro-2-hydroxybenzamide] | 2–4 fold |  |
| O=C(Nc1ccc([N+](=O)[O-])cc1Cl)c1cc(Cl)ccc1O [niclosamide] |  | effect on membrane potential and pH homeostasis (Mtb): disruption of membrane potential and pH homeostasis |
| N-(3-Bromo-5-(trifluoromethyl)phenyl)-5-chloro-2-hydroxy-benzamide [Compound 74] |  | IC50 [1]: 5.8 µM |
